Source: patent US20250230193A1, “CYCLIC COMPOUND HAVING SELECTIVE KRAS INHIBITORY EFFECT ON HRAS AND NRAS” (CHUGAI SEIYAKU KABUSHIKI KAISHA, priority 2022, published 2025)
*1 amine or outer side, *2 acyl side, *3 side chain or, on linkers, in order; H or OH if unused. Where a SMILES comes first, the peptide text is derived from it. Bridges are numbered along the chain shown (N, C = ends). [ ]: non-standard residue; d: D form. The star is where a group is joined. hPhe(3-Cl-4-CF3) = N[C@@H](CCc1ccc(C(F)(F)F)c(Cl)c1)C(=O)O; NPrPhe(4-CF3) = CCCN[C@@H](Cc1ccc(C(F)(F)F)cc1)C(=O)O; NPrAsp = CCCN([C@@H](CC(=O)[*:3])C(=O)[*:2])[*:1]; NEtAsp = CCN([C@@H](CC(=O)[*:3])C(=O)[*:2])[*:1]; X30 = CCN([C@H](C(=O)[*:2])C1CCCC1)[*:1]; NMeGly(cPent) = CN[C@H](C(=O)O)C1CCCC1; Ac4c(3,3-Me2) = CC1(C)CC(N)(C(=O)O)C1; NMeNva(3-Et) = CCC(CC)[C@H](NC)C(=O)O; NMeD = CN[C@@H](CC(=O)O)C(=O)O; NMeL = CN[C@@H](CC(C)C)C(=O)O; NMeNva = CCC[C@H](NC)C(=O)O; Morpholide = C1CN(*)CCO1; NMeA = CN[C@@H](C)C(=O)O; Aze = O=C(O)[C@@H]1CCN1; Ac4c = NC1(C(=O)O)CCC1; Sar = CNCC(=O)O; Propyl = CCC*

Tests used:
[1] = biological target: GDP-bound NRAS wild-type protein (Homo sapiens, UniProt P01111); test: Binding to NRAS by surface plasmon resonance (SPR), Single Cycle Kinetics; conditions: KD ratio, GDP-bound NRAS wild-type vs GDP-bound KRAS wild-type, SPR
[2] = biological target: GDP-bound HRAS wild-type protein (Homo sapiens, UniProt P01112); test: Binding to HRAS by surface plasmon resonance (SPR), Single Cycle Kinetics; conditions: KD ratio, GDP-bound HRAS wild-type vs GDP-bound KRAS wild-type, SPR
GDP-bound HRAS wild-type protein, sequence (P01112 whole entry): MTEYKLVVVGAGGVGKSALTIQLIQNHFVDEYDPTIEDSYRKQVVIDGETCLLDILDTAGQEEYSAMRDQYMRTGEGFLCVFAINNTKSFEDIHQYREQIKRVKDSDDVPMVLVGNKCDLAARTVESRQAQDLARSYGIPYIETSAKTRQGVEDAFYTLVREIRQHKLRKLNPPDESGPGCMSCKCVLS

GDP-bound NRAS wild-type protein, sequence (P01111 whole entry): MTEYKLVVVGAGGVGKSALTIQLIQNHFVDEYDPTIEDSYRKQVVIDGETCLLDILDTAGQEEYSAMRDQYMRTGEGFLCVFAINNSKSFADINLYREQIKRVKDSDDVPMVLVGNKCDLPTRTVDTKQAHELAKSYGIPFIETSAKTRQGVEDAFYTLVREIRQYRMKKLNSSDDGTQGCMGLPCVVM

SMILES | NRAS/KRAS (ratio of KD value for NRAS to KD value for KRAS) [1] | HRAS/KRAS (ratio of KD value for HRAS to KD value for KRAS) [2]
CCCN1C(=O)CN(C)C(=O)CN(C)C(=O)[C@H]([C@@H](C)CC)NC(=O)[C@H](CC(C)C)N(C)C(=O)C[C@@H](C(=O)N2CCOCC2)N(C)C(=O)[C@H](C2CCCC2)N(CC)C(=O)C2(CCC2)NC(=O)[C@@H]2CCCN2C(=O)[C@H](CCc2ccc(C(F)(F)F)c(Cl)c2)NC(=O)CN(C)C(=O)[C@@H]1Cc1ccc(C(F)(F)F)cc1 [PP1952] ([NMeL]I[Sar][Sar][NPrPhe(4-CF3)][Sar][hPhe(3-Cl-4-CF3)]P[Ac4c][X30][NMeD]-Morpholide; lactam N-11) | B (a compound having 3 or more and less than 10 is denoted as B) | B (a compound having 3 or more and less than 10 is denoted as B)
CCCN1C(=O)CN(C)C(=O)CN(C)C(=O)[C@H]([C@@H](C)CC)NC(=O)[C@H](CC(C)C)N(C)C(=O)C[C@@H](C(=O)N2CCOCC2)N(CC)C(=O)[C@H](C2CCCC2)N(C)C(=O)C2(CCC2)NC(=O)[C@@H]2CCCN2C(=O)[C@H](CCc2ccc(C(F)(F)F)c(Cl)c2)NC(=O)CN(C)C(=O)[C@@H]1Cc1ccc(C(F)(F)F)cc1 [PP1953] ([NMeL]I[Sar][Sar][NPrPhe(4-CF3)][Sar][hPhe(3-Cl-4-CF3)]P[Ac4c][NMeGly(cPent)][NEtAsp]-Morpholide; lactam N-11) | B (a compound having 3 or more and less than 10 is denoted as B) | B (a compound having 3 or more and less than 10 is denoted as B)
CCC[C@H]1C(=O)N[C@@H]([C@@H](C)CC)C(=O)N(C)CC(=O)N(C)CC(=O)N(CCC)[C@@H](Cc2ccc(C(F)(F)F)cc2)C(=O)N(C)CC(=O)N[C@@H](CCc2ccc(C(F)(F)F)c(Cl)c2)C(=O)N2CCC[C@H]2C(=O)NC2(CCC2)C(=O)N(C)[C@@H](C2CCCC2)C(=O)N(CCC)[C@H](C(=O)N2CCOCC2)CC(=O)N1C [PP1954] ([NMeNva]I[Sar][Sar][NPrPhe(4-CF3)][Sar][hPhe(3-Cl-4-CF3)]P[Ac4c][NMeGly(cPent)][NPrAsp]-Morpholide; lactam N-11) | B (a compound having 3 or more and less than 10 is denoted as B) | B (a compound having 3 or more and less than 10 is denoted as B)
CCC[C@H]1C(=O)N[C@@H]([C@@H](C)CC)C(=O)N(C)[C@@H](C)C(=O)N2CC[C@H]2C(=O)N(CCC)[C@@H](Cc2ccc(C(F)(F)F)cc2)C(=O)N(C)CC(=O)N[C@@H](CCc2ccc(C(F)(F)F)c(Cl)c2)C(=O)N2CCC[C@H]2C(=O)NC2(CCC2)C(=O)N(C)[C@@H](C2CCCC2)C(=O)N(CC)[C@H](C(=O)N2CCOCC2)CC(=O)N1C [PP1955] ([NMeNva]I[NMeA][Aze][NPrPhe(4-CF3)][Sar][hPhe(3-Cl-4-CF3)]P[Ac4c][NMeGly(cPent)][NEtAsp]-Morpholide; lactam N-11) | C (A compound having a KD ratio of 0.1 or more and less than 3 is denoted as C) | B (a compound having 3 or more and less than 10 is denoted as B)
CCCN1C(=O)CN(C)C(=O)CN(C)C(=O)[C@H]([C@@H](C)CC)NC(=O)[C@H](CC(C)C)N(C)C(=O)C[C@@H](C(=O)N(C)C)N(CC)C(=O)[C@H](C2CCCC2)N(C)C(=O)C2(CCC2)NC(=O)[C@@H]2CCCN2C(=O)[C@H](CCc2ccc(C(F)(F)F)c(Cl)c2)NC(=O)CN(C)C(=O)[C@@H]1Cc1ccc(C(F)(F)F)cc1 [PP1956] ([NMeL]I[Sar][Sar][NPrPhe(4-CF3)][Sar][hPhe(3-Cl-4-CF3)]P[Ac4c][NMeGly(cPent)][NEtAsp]-NMe2; lactam N-11) | B (a compound having 3 or more and less than 10 is denoted as B) | B (a compound having 3 or more and less than 10 is denoted as B)
CCCN1C(=O)[C@@H]2CCN2C(=O)[C@H](C)N(C)C(=O)[C@H]([C@@H](C)CC)NC(=O)[C@H](CC(C)C)N(C)C(=O)C[C@@H](C(=O)N(C)C)N(CC)C(=O)[C@H](C2CCCC2)N(C)C(=O)C2(CCC2)NC(=O)[C@@H]2CCCN2C(=O)[C@H](CCc2ccc(C(F)(F)F)c(Cl)c2)NC(=O)CN(C)C(=O)[C@@H]1Cc1ccc(C(F)(F)F)cc1 [PP1957] ([NMeL]I[NMeA][Aze][NPrPhe(4-CF3)][Sar][hPhe(3-Cl-4-CF3)]P[Ac4c][NMeGly(cPent)][NEtAsp]-NMe2; lactam N-11) | C (A compound having a KD ratio of 0.1 or more and less than 3 is denoted as C) | B (a compound having 3 or more and less than 10 is denoted as B)
CCCN1C(=O)CN(C)C(=O)CN(C)C(=O)[C@H]([C@@H](C)CC)NC(=O)[C@H](CC(C)C)N(C)C(=O)C[C@@H](C(=O)N2CCOCC2)N(C)C(=O)[C@H](C(CC)CC)N(C)C(=O)C2(CCC2)NC(=O)[C@@H]2CCCN2C(=O)[C@H](CCc2ccc(C(F)(F)F)c(Cl)c2)NC(=O)CN(C)C(=O)[C@@H]1Cc1ccc(C(F)(F)F)cc1 [PP1958] ([NMeL]I[Sar][Sar][NPrPhe(4-CF3)][Sar][hPhe(3-Cl-4-CF3)]P[Ac4c][NMeNva(3-Et)][NMeD]-Morpholide; lactam N-11) | B (a compound having 3 or more and less than 10 is denoted as B) | B (a compound having 3 or more and less than 10 is denoted as B)
CCC[C@H]1C(=O)N[C@@H]([C@@H](C)CC)C(=O)N(C)[C@@H](C)C(=O)N2CC[C@H]2C(=O)N(CCC)[C@@H](Cc2ccc(C(F)(F)F)cc2)C(=O)N(C)CC(=O)N[C@@H](CCc2ccc(C(F)(F)F)c(Cl)c2)C(=O)N2CCC[C@H]2C(=O)NC2(CCC2)C(=O)N(C)[C@@H](C(CC)CC)C(=O)N(C)[C@H](C(=O)N2CCOCC2)CC(=O)N1C [PP1959] ([NMeNva]I[NMeA][Aze][NPrPhe(4-CF3)][Sar][hPhe(3-Cl-4-CF3)]P[Ac4c][NMeNva(3-Et)][NMeD]-Morpholide; lactam N-11) | C (A compound having a KD ratio of 0.1 or more and less than 3 is denoted as C) | B (a compound having 3 or more and less than 10 is denoted as B)
CCCN1C(=O)CN(C)C(=O)CN(C)C(=O)[C@H]([C@@H](C)CC)NC(=O)[C@H](CC(C)C)N(C)C(=O)C[C@@H](C(=O)N(C)C)N(C)C(=O)[C@H](C(CC)CC)N(C)C(=O)C2(CCC2)NC(=O)[C@@H]2CCCN2C(=O)[C@H](CCc2ccc(C(F)(F)F)c(Cl)c2)NC(=O)CN(C)C(=O)[C@@H]1Cc1ccc(C(F)(F)F)cc1 [PP1960] ([NMeL]I[Sar][Sar][NPrPhe(4-CF3)][Sar][hPhe(3-Cl-4-CF3)]P[Ac4c][NMeNva(3-Et)][NMeD]-NMe2; lactam N-11) | B (a compound having 3 or more and less than 10 is denoted as B) | C (A compound having a KD ratio of 0.1 or more and less than 3 is denoted as C)
CCCN1C(=O)[C@@H]2CCN2C(=O)[C@H](C)N(C)C(=O)[C@H]([C@@H](C)CC)NC(=O)[C@H](CC(C)C)N(C)C(=O)C[C@@H](C(=O)N(C)C)N(C)C(=O)[C@H](C(CC)CC)N(C)C(=O)C2(CCC2)NC(=O)[C@@H]2CCCN2C(=O)[C@H](CCc2ccc(C(F)(F)F)c(Cl)c2)NC(=O)CN(C)C(=O)[C@@H]1Cc1ccc(C(F)(F)F)cc1 [PP1961] ([NMeL]I[NMeA][Aze][NPrPhe(4-CF3)][Sar][hPhe(3-Cl-4-CF3)]P[Ac4c][NMeNva(3-Et)][NMeD]-NMe2; lactam N-11) | C (A compound having a KD ratio of 0.1 or more and less than 3 is denoted as C) | C (A compound having a KD ratio of 0.1 or more and less than 3 is denoted as C)
CCCN1C(=O)CN(C)C(=O)CN(C)C(=O)[C@H]([C@@H](C)OC)NC(=O)[C@H](CC(C)C)N(C)C(=O)C[C@@H](C(=O)N2CCOCC2)N(C)C(=O)[C@H](C2CCCC2)N(C)C(=O)C2(CC(C)(C)C2)NC(=O)[C@@H]2CCCN2C(=O)[C@H](CCc2ccc(C(F)(F)F)c(Cl)c2)NC(=O)CN(C)C(=O)[C@@H]1Cc1ccc(C(F)(F)F)cc1 [PP1963] ([NMeL]T(Me)[Sar][Sar][NPrPhe(4-CF3)][Sar][hPhe(3-Cl-4-CF3)]P[Ac4c(3,3-Me2)][NMeGly(cPent)][NMeD]-Morpholide; lactam N-11) | B (a compound having 3 or more and less than 10 is denoted as B) | C (A compound having a KD ratio of 0.1 or more and less than 3 is denoted as C)
CCCN1C(=O)CN(C)C(=O)CN(C)C(=O)[C@H]([C@@H](C)OCC)NC(=O)[C@H](CC(C)C)N(C)C(=O)C[C@@H](C(=O)N2CCOCC2)N(C)C(=O)[C@H](C2CCCC2)N(C)C(=O)C2(CC(C)(C)C2)NC(=O)[C@@H]2CCCN2C(=O)[C@H](CCc2ccc(C(F)(F)F)c(Cl)c2)NC(=O)CN(C)C(=O)[C@@H]1Cc1ccc(C(F)(F)F)cc1 [PP1964] ([NMeL]T(Et)[Sar][Sar][NPrPhe(4-CF3)][Sar][hPhe(3-Cl-4-CF3)]P[Ac4c(3,3-Me2)][NMeGly(cPent)][NMeD]-Morpholide; lactam N-11) | B (a compound having 3 or more and less than 10 is denoted as B) | B (a compound having 3 or more and less than 10 is denoted as B)
CCCO[C@H](C)[C@@H]1NC(=O)[C@H](CC(C)C)N(C)C(=O)C[C@@H](C(=O)N2CCOCC2)N(C)C(=O)[C@H](C2CCCC2)N(C)C(=O)C2(CC(C)(C)C2)NC(=O)[C@@H]2CCCN2C(=O)[C@H](CCc2ccc(C(F)(F)F)c(Cl)c2)NC(=O)CN(C)C(=O)[C@H](Cc2ccc(C(F)(F)F)cc2)N(CCC)C(=O)CN(C)C(=O)CN(C)C1=O [PP1965] ([NMeL]T(Propyl)[Sar][Sar][NPrPhe(4-CF3)][Sar][hPhe(3-Cl-4-CF3)]P[Ac4c(3,3-Me2)][NMeGly(cPent)][NMeD]-Morpholide; lactam N-11) | B (a compound having 3 or more and less than 10 is denoted as B) | B (a compound having 3 or more and less than 10 is denoted as B)
